Results published in patent publication US20100021392A1, “Vapor-phase application of spinosyn for the control of pest, and formulations and products utilizing the same” (priority 2006, published 2010).

Tests used:
[1] = Evaporation test of spinosad from impregnated paper mats on mat diffusers (HPLC); type: physicochemical; conditions: Example 1 mat, initial 80 mgs per mat; for Percentage of Spinosad Evaporated: 8 h
Procedure: Paper mats having dimensions of 35 mm (length)×21.5 mm (width)×2.5 mm (thickness) were then gradually impregnated with 0.84-1.70 grams of the above upper phase mixture (depending on its content in spinosad) so as to have approximately 80 mgs of pure spinosad per mat. The mats were left at a temperature of approximately 30° C. for 3 hours during which time most of the ethyl alcohol was evaporated. Next the mats were closed within foil comprising metallized polyethylene terepthalate PET 12 μm/adhesive/PET 35 μm. The mats were allowed to rest for 24 hours to allow for complete spread of the liquid material within the paper. Evaporation tests were then run as follows:
(§1) The foil was opened and a mat was removed. The mat was checked by HPLC to confirm its spinosad content. As was theoretically expected, 80 mgs of pure spinosad per mat were found. Four mats of this batch were then placed on common mat diffusers having a temperature ranging from 130° C. to 160° C. The amount of spinosad remaining on the mat was checked after each of 2, 4, and 8 hours of diffuser operation.
as §1, with “the content of spinosad.” for “its spinosad content.”, “11” for “80”, “mats” for “mats of this batch”, “of” for “of diffuser”
as §1, with “confirm the content of spinosad.” for “confirm its spinosad content.”, “expected, 10” for “expected, 80”, “mat was” for “mat were”, “mats” for “mats of this batch”, “of” for “of diffuser”

[2] = Evaporation of liquid formulation from bottle with ceramic wick on diffuser; type: physicochemical; conditions: equal to 1 gram of mixture, diffuser 125°-150° C.
Procedure: PET plastic bottles were then each filled with 24 grams of the above formulation. A plastic insert and ceramic wick were then placed in the opening of the bottle and the bottle was screwed onto a common diffuser. The diffuser was operated at a temperature ranging from 125°-150° C. […] The remainder of the mixture in the bottle was then analyzed by HPLC. […] The bottle was then plugged off and stored for 12 additional hours. The bottle was again screwed onto a common diffuser, and the diffuser was operated at a temperature of 125°-150° C.

[3] = system: mammals; conditions: cited from earlier work
[4] = system: mammals; conditions: in vivo; cited from earlier work
[5] = system: birds; conditions: in vivo; cited from earlier work
[6] = system: fish; conditions: in vivo; cited from earlier work
[7] = at 25° C.; cited from earlier work

Compound	Percentage of Spinosad Evaporated ([1]; diffuser temperature 130° C.)	Percentage of Spinosad Evaporated ([1]; diffuser temperature 140° C.)	Percentage of Spinosad Evaporated ([1]; diffuser temperature 160° C.)	Quantity of Spinosad Remained on mat after 8 h of operation ([1]; diffuser temperature 130° C.)	Quantity of Spinosad Remained on mat after 8 h of operation ([1]; diffuser temperature 140° C.)	Quantity of Spinosad Remained on mat after 8 h of operation ([1]; diffuser temperature 160° C.)	pure spinosad evaporated after 8 hours [2]	chronic toxicology findings [3]	toxicity to mammals [4]	toxicity to birds [5]	toxicity to fish [6]	vapor pressure [7]
Spinosad	75%	85%	98%	20 mgs	12 mgs	2 mgs	20 mgs	not carcinogenic, teratogenic, mutagenic, or neurotoxic	relatively low	relatively low	only slightly toxic	–
CC[C@H]1CCC[C@H](O[C@H]2CC[C@H](N(C)C)[C@@H](C)O2)[C@@H](C)C(=O)C2=C[C@@H]3[C@@H](C=C[C@@H]4C[C@@H](O[C@@H]5O[C@@H](C)[C@H](OC)[C@@H](OC)[C@H]5OC)C[C@@H]34)[C@@H]2CC(=O)O1 [spinosyn A]	–	–	–	–	–	–	–	–	–	–	–	2.4 ×10^−10 mmHg
